Reference: patent US5599548A, “Skin care compositions containing fatty acid amides and retinol or retinyl ester” (priority 1995, dated 1997)
Like-named read-outs stand apart in the source and are kept apart here.

Key:
[1] = tested on: Human keratinocytes; experiment: 3H-Thymidine incorporation (keratinocyte proliferation); type: cell-based; conditions: for activity at 0.25 µM / activity at 0.025 µM / activity at 0.0025 µM: Homo sapiens, Keratinocyte; for activity at 0.25 µM / mean Thymidine incorp./μg protein ± s.d: 2.5 × 10^-7 M; for activity at 0.0025 µM: 2.5 × 10^-9 M; for effect on keratinocyte proliferation, in words: concentrations as in the respective Example
Description: (§1) Human keratinocytes, isolated from neonatal foreskin by trypsin treatment were grown in Dulbecco Modification Eagle (DME) Hams F12 (1:1) medium/10% fetal calf serum in the presence of irradiated 3T3 mouse fibroblasts for establishing dividing keratinocyte colonies. Cells were grown under the above condition until their second passage and kept frozen for future use. […] On day 7, when the cells were 80-90% confluent, they were trypsinized and plated in the serum-free medium for the various experiments.
The incorporation of […] by cultured keratinocytes was used as an assay of keratinocyte proliferation. Thymidine is one of four deoxynucleosides which are the monomeric units of DNA, the universal library of genetic information in the animal kingdom. Prior to cell division of a somatic cell such as a keratinocyte, the complete genome of the cell undergoing cell division is replicated. This involves large scale DNA synthesis by the cell and enables both daughter cells to receive identical copies of the genetic material. When ^3 H-thymidine is included in the culture media of keratinocytes which are synthesizing DNA in preparation for cell division then the labelled nucleoside is incorporated into the newly synthesized DNA. The extent of incorporation of ^3 H-thymidine into a population of cells is proportional to the rate of DNA synthesis by this population of cells and therefore an indication of their cellular proliferation.
Keratinocytes (that were cultured as described above) were plated in 24 well plates at a density of 40,000 cells per well in 1 ml media. After incubation for four days or until the cells were 60-70% confluent, the media was changed. Test compounds were added (in triplicate) to the wells 24 hours after the media change, and four hours later 1μCi^3 H-Thymidine in 50 μl media was added per well. Cells were incubated for a further 24 hours. Media was removed from the cells, 10% ice cold trichloroacetic acid (TCA) added and plates were incubated on ice for 30 minutes. Cells were washed five times with 5% TCA and allowed to dissolve in 500 μl 0.1M NaOH for at least one hour (usually overnight). The preparations were neutralized with 0.1M HCl; 50 μl of the cell preparation was used to determine total protein content. Disintegrations per minute (DPM) from ^3 H labelling of DNA was determined by liquid scintillation counting of […] of the cell preparation. Thymidine incorporation results were expressed as DPM/μg protein.

[2] = tested on: TGase I (keratinocyte transglutaminase level); experiment: Transglutaminase (TGase I) ELISA assay (keratinocyte differentiation); type: cell-based, human; conditions: for effect on keratinocyte TG1 levels / differentiation, in words: concentrations as in the respective Example
Description: as §1
During the process of terminal differentiation in the epidermis, a 15 nm thick layer of protein, known as the cornified envelope (CE) is formed on the inner surface of the cell periphery. The CE is composed of numerous distinct proteins which have been cross-linked together by the formation of N^ε -(γ-glutamyl) lysine isodipeptide bonds catalyzed by the action of at least two different transglutaminases (TGases) expressed in the epidermis. TGase I is expressed in abundance in the differentiated layers of the epidermis, especially the granular layer, but is absent in the undifferentiated basal epidermis. Thus TGase I is a useful marker of epidermal keratinocyte differentiation with high TGase I levels indicating a more differentiated state. An ELISA based TGase I assay, using a TGase I antibody, was used to assess the state of differentiation of the cultured keratinocytes in the examples that follow.
Keratinocytes (cultured as described above) were plated in 96 well plates at a density of 3,000 cells per well in 200 μl media. After incubation for four days the media was changed to media containing test compounds (six replicates per test). The cells were cultured for a further 72 hours after which time the media was aspirated and the plates stored at -70° C. Plates were removed from the freezer, and the cells washed with PBS. 100 μl sterile water was added and the cells were freeze fractured by freezing at -70° C. then thawing. The cells were incubated for one hour at room temperature (R/T) with PBS/3% BSA (wash buffer, bovine serum albumin), then rinsed with a fresh aliquot of wash buffer. Cells were incubated with 50 μl of primary antibodies monoclonal anti-human transglutaminase (IgG) obtained from Amersham (mouse) diluted 1:300 in wash buffer for one hour, 37° C. then rinsed two times with wash buffer. Cells were then incubated with 50 μl of secondary antibody (Feb fragment, peroxidase conjugated anti-mouse IgG obtaining from Amersham) diluted 1:200 in wash buffer for one hour at 37° C., then rinsed two times with wash buffer. Cells were incubated with substrate solution (4 mg o-phenylene diamine and 3.3 μl 30% H2 O2 in 10 ml 0.1M citrate buffer pH 5.0) for five minutes, R/T, in darkness (under aluminum foil). The reaction was stopped by the addition of 50 μl 4N H2 SO4. The absorbance of samples was read at 492 nm in the plate reader. Out of the six replicates, four were treated with both antibodies, two were treated only with the secondary antibody (i.e., to determine background binding of enzyme conjugated Ab). TGase levels were determined by subtracting background from the readings from each treatment and determining mean ±s.d. for the replicates exposed to both Ab.

[3] = 24 h, Table 7A, 24 h, n = 9, read-out: mean Thymidine incorp/μg protein ± s.d
[4] = 24 h, Table 7A, 24 h, n = 9, read-out: thymidine incorporation, % control

SMILES: CC1=C(/C=C/C(C)=C/C=C/C(C)=C/CO)C(C)(C)CCC1 [ROH, retinol]
- activity at 0.25 µM ([1]; 24 h, Table 1A, first RA/ROH pair, 24 h, n = 3, read-out: thymidine incorporation, % control): 106%
- activity at 0.25 µM ([1]; 24 h, Table 1A, second RA/ROH pair, 24 h, n = 3, read-out: thymidine incorporation, % control): 97%
- activity at 0.25 µM ([1]; 24 h, Table 1A, third RA/ROH pair, 24 h, n = 3, read-out: thymidine incorporation, % control): 94%
- activity at 0.025 µM ([1]; 24 h, Table 2A, RA, ROH 2.5 × 10^-8 M, linoleoyl-DEA 10^-9 M, alone or combined, 24 h, n = 9, read-out: thymidine incorporation, % control): 102%
- activity at 0.025 µM ([1]; 24 h, Table 2A, RA, ROH 2.5 × 10^-8 M, linoleoyl-DEA 10^-9 M, alone or combined, 24 h, normalized to ethanol control, n = 9, read-out: mean Thymidine incorp./μg protein ± s.d): 102 ± 15.2%
- activity at 0.025 µM ([1]; 24 h, Table 4C, RA, retinol 2.5 × 10^-8 M, palmitoyl-MEA 10^-6 M, alone or combined, n = 3, read-out: thymidine incorporation, % control): 101%
- activity at 0.025 µM ([1]; 24 h, Table 4D, RA, ROH 2.5 × 10^-8 M, linoleoyl-MEA 10^-9 M, alone or combined, 24 h, n = 3, read-out: thymidine incorporation, % control): 106%
- activity at 0.025 µM ([1]; 24 h, Table 4D, RA, ROH 2.5 × 10^-8 M, linoleoyl-MEA 10^-9 M, alone or combined, 24 h, normalized to ethanol control, n = 3, read-out: mean Thymidine incorp./μg protein ± s.d): 106 ± 27%
- activity at 0.25 µM [1, 3]: 102 ± 16.5%
- activity at 0.25 µM [1, 4]: 102%
- activity at 0.025 µM ([1]; 24 h, Table 7A, 2.5 × 10^-8 M, 24 h, n = 9, read-out: mean Thymidine incorp/μg protein ± s.d): 101 ± 15.2%
- activity at 0.025 µM ([1]; 24 h, Table 7A, 2.5 × 10^-8 M, 24 h, n = 9, read-out: thymidine incorporation, % control): 101%
- activity at 0.0025 µM [1, 3]: 99.5 ± 12.3%
- activity at 0.0025 µM [1, 4]: 100%
- activity at 0.025 µM ([1]; Table 4C, RA, retinol 2.5 × 10^-8 M, palmitoyl-MEA 10^-6 M, alone or combined, control = 1.000, n = 3, read-out: mean Thymidine incorp./μg protein ± s.d): 101 ± 8.8%
- mean Thymidine incorp./μg protein ± s.d ([1]; Table 1A, first RA/ROH pair, 24 h, n = 3): 2218 ± 73 DPM/μg protein
- mean Thymidine incorp./μg protein ± s.d ([1]; Table 1A, second RA/ROH pair, 24 h, n = 3): 2034 ± 46 DPM/μg protein
- mean Thymidine incorp./μg protein ± s.d ([1]; Table 1A, third RA/ROH pair, 24 h, n = 3): 1977 ± 19 DPM/μg protein
- effect on keratinocyte proliferation, in words [1]: minor, non-significant stimulatory effect on keratinocyte proliferation
- effect on keratinocyte proliferation, in words ([1]; listed as Retinol): completely ineffective at increasing keratinocyte proliferation
- effect on keratinocyte proliferation, in words ([1]; listed as retinol): Neither 10^-8 M palmitoyl-MEA nor 2.5×10^-8 M retinol had an effect on keratinocyte proliferation
- activity at 0.25 µM ([2]; Homo sapiens, Keratinocyte, 72 h, Table 1B, 2.5 × 10^-7 M, 72 h, n = 3, read-out: Transglutaminase level, % control): 67%
- activity at 0.025 µM ([2]; Homo sapiens, Keratinocyte, 72 h, Table 1B, 2.5 × 10^-8 M, 72 h, n = 3, read-out: Transglutaminase level, % control): 86%
- activity at 0.0025 µM ([2]; Homo sapiens, Keratinocyte, 72 h, Table 1B, 2.5 × 10^-9 M, 72 h, n = 3, read-out: Transglutaminase level, % control): 97%
- activity at 0.25 µM ([2]; Homo sapiens, Keratinocyte, 72 h, Table 2B, RA, ROH 2.5 × 10^-7 M, linoleoyl-DEA 10^-6 M, alone or combined, 72 h, n = 9, read-out: TGase (TG1) level, % control): 59%
- activity at 0.25 µM ([2]; Homo sapiens, Keratinocyte, 72 h, Table 6A, RA, ROH 2.5 × 10^-7 M, formamide 10^-7 M, alone or combined, 72 h, n = 3, read-out: TGase (TG1) level, % control): 71%
- activity at 0.25 µM ([2]; Homo sapiens, Keratinocyte, 72 h, Table 6B, RA, ROH 2.5 × 10^-7 M, acetamide 10^-7 M, alone or combined, 72 h, n = 3, read-out: TGase (TG1) level, % control): 65%
- activity at 0.25 µM ([2]; Homo sapiens, Keratinocyte, 72 h, Table 6C, RA, ROH 2.5 × 10^-7 M, pentanoyl-DEA 10^-7 M, alone or combined, 72 h, n = 3, read-out: TGase (TG1) level, % control): 67%
- activity at 0.25 µM ([2]; Homo sapiens, Keratinocyte, Table 4A, RA, retinol 2.5 × 10^-7 M, cocoyl-DEA 10^-7 M, alone or combined, n = 3, read-out: TGase (TG1) level, % control): 82%
- activity at 0.025 µM ([2]; Homo sapiens, Keratinocyte, Table 4B, RA, retinol 2.5 × 10^-8 M, cocoyl-MEA 10^-8 M, alone or combined, n = 3, read-out: TGase (TG1) level, % control): 44%
- activity at 0.25 µM ([2]; Homo sapiens, Keratinocyte, Table 5A, RA, retinol 2.5 × 10^-7 M, linoleic acid 10^-6 M, alone or combined, n = 3, read-out: TGase (TG1) level, % control): 39%
- activity at 0.025 µM ([2]; Homo sapiens, Keratinocyte, Table 5B, RA, retinol 2.5 × 10^-8 M, methyl linoleate 10^-8 M, alone or combined, n = 3, read-out: TGase (TG1) level, % control): 69%
- mean Transglutaminase ELISA level ± s.d ([2]; Table 1B, 2.5 × 10^-7 M, 72 h, n = 3): 0.290 ± 0.043
- mean Transglutaminase ELISA level ± s.d ([2]; Table 1B, 2.5 × 10^-8 M, 72 h, n = 3): 0.371 ± 0.054
- mean Transglutaminase ELISA level ± s.d ([2]; Table 1B, 2.5 × 10^-9 M, 72 h, n = 3): 0.416 ± 0.035
- mean TGase ± s.d ([2]; Table 2B, RA, ROH 2.5 × 10^-7 M, linoleoyl-DEA 10^-6 M, alone or combined, 72 h, normalized to ethanol control, n = 9): 0.594 ± 0.542
- mean TGase ± s.d ([2]; Table 4A, RA, retinol 2.5 × 10^-7 M, cocoyl-DEA 10^-7 M, alone or combined, n = 3): 0.145 ± 0.070
- mean TGase ± s.d ([2]; Table 4B, RA, retinol 2.5 × 10^-8 M, cocoyl-MEA 10^-8 M, alone or combined, n = 3): 0.054 ± 0.013
- mean TGase ± s.d ([2]; Table 5A, RA, retinol 2.5 × 10^-7 M, linoleic acid 10^-6 M, alone or combined, n = 3): 0.042 ± 0.112
- mean TGase ± s.d ([2]; Table 5B, RA, retinol 2.5 × 10^-8 M, methyl linoleate 10^-8 M, alone or combined, n = 3): 0.199 ± 0.093
- mean TGase level ± s.d ([2]; Table 6A (Effect on Keratinocyte TGase), RA, ROH 2.5 × 10^-7 M, formamide 10^-7 M, alone or combined, 72 h, n = 3): 0.351 ± 0.046
- mean TGase level ± s.d ([2]; Table 6B (Effect on Keratinocyte TGase), RA, ROH 2.5 × 10^-7 M, acetamide 10^-7 M, alone or combined, 72 h, n = 3): 0.317 ± 0.043
- mean TGase level ± s.d ([2]; Table 6C (Effect on Keratinocyte TGase), RA, ROH 2.5 × 10^-7 M, pentanoyl-DEA 10^-7 M, alone or combined, 72 h, n = 3): 0.290 ± 0.043
- effect on keratinocyte TG1 levels / differentiation, in words ([2]; listed as Retinol): significantly less effective than retinoic acid at inhibiting keratinocyte differentiation
- effect on keratinocyte TG1 levels / differentiation, in words ([2]; listed as retinol): decrease in transglutaminase level was dose dependent
